Assay results reported in patent publication US7739055B2, “Methods and systems for generating and evaluating peptides” (priority 2005, dated 2010).
Where a SMILES comes first, the peptide text is derived from it.

Test system: B. cereus

CC[C@H](C)[C@H](NC(=O)[C@H](CC(C)C)NC(=O)[C@H](C)NC(=O)[C@@H]1CCCN1C(=O)[C@H](C)NC(=O)[C@@H](NC(=O)[C@H](CCCCN)NC(=O)[C@@H](N)CCCNC(=N)N)C(C)C)C(=O)N[C@@H](CCCCN)C(=O)N[C@@H](CO)C(=O)N[C@@H](Cc1ccccc1)C(=O)N[C@H](C(=O)N[C@@H](Cc1ccccc1)C(=O)N[C@@H](CC(C)C)C(=O)N[C@@H](Cc1ccccc1)C(=O)N[C@@H](CCCCN)C(=O)N[C@@H](Cc1ccccc1)C(=O)N[C@@H](CCCCN)C(=O)N[C@@H](CCCCN)C(=O)NCC(=O)O)C(C)C [Shuffled 51] (H-RKVAPALIKSFVFLFKFKKG-OH; N-terminus and C-terminus assumed)
MIC B. cereus: + (key: +: MIC greater than 256 ug/mL; ++: MIC greater than 128 ug/mL, not sufficiently soluble to test as 256 ug/mL)
